Assay results as given in US12317897B2, “Methods of controlling or preventing infestation of vegetable, tomato and potato plants by phytopathogenic microorganisms” (SYNGENTA CROP PROTECTION AG, priority 2017, dated 2025).

Assays:
Format in all cases: in vivo
Fusarium oxysporum [1] = assay: Fusarium oxysporum in melon, greenhouse trial, drench at planting; details: 60 g AI/ha, 69 days after planting
Experimental: Fusarium oxysporum in Melon:
A melon greenhouse trial was carried out in El Ejido, Almeria, Spain in 2017 to evaluate the efficacy of different compounds against Fusarium oxysporum in melon.
The melon transplants were planted on May 5, 2017 and the afterwards drench applied with the compounds using a water volume of 100 ml per plant.
In order to increase the disease pressure each plot has been inoculated with 900 ml Fusarium oxysporum suspension with a concentration of 100′000 spores per millilitre of water three days before transplanting. The first disease symptoms were visible three weeks after transplanting and an assessment on disease severity and was done 69 days after transplanting on Jul. 13, 2017.
Assessments: Pest Severity, 69 Days after Planting

Fusarium oxysporum [2] = assay: Fusarium oxysporum in tomato, greenhouse trial, drench at planting; details: 100 g AI/ha, 132 days after planting
Experimental: Fusarium oxysporum in Tomato:
A tomato greenhouse trial was carried out in Sanlucar de Barrameda, Cadiz, Spain in 2017 to evaluate the efficacy of different compounds against Fusarium oxysporum in tomato.
Three week old tomato plants were transplanted on Apr. 7, 2017 and the afterwards drench applied with the compounds using a water volume of 100 ml per plant.
In order to increase the disease pressure 60 ml Fusarium oxysporum suspension with a concentration of 1′000′000 spores per milliliter of water was drenched directly in the planting hole were the plants will be transplanted the next day. The assessment on disease incidence and was done 132 days after transplanting on Aug. 17, 2017.
Assessments: Pest Incidence, 132 Days after Planting

Alternaria solani = Alternaria solani (early blight) on potato, field trial, in-furrow spray at planting; details: 250 g AI/ha, 89 days after planting
Experimental: Alternaria solani on Potato: A potato field trial was carried out in Tompkins, New York, USA in 2018 to evaluate the efficacy of different compounds against early blight disease caused by Alternaria solani. The potato tubers were applied in-furrow at planting by using boom sprayer with a flat fan nozzle. The disease occurred beginning of August and an assessment on disease severity and was done Sep. 5, 2018. [table] [table] [table] [table] [table] [table] Assessments: Pest Severity, 89 Days after Planting

Fusarium oxysporum [3] = assay: Fusarium oxysporum on okra, field trial, drench at planting; details: 375 g AI/ha, 60 days after planting
Experimental: Fusarium oxysporum on Okra:
An okra field trial was carried out in Kuppanur, Coimbatore, India in 2018 to evaluate the efficacy of different compounds against Fusarium oxysporum in okra.
The okra seeds were planted on Jun. 29, 2018 and directly afterwards drench applied with the compounds using a water volume of 50 ml per plant. The disease occurred two weeks after planting and an assessment on disease incidence and was done Aug. 28, 2018.
Assessments: Pest Incidence, 60 Days after Planting

SMILES: CON(C(=O)c1cn(C)nc1C(F)F)C(C)Cc1c(Cl)cc(Cl)cc1Cl (centres unmarked) [COMPOUND 2 SC 200, PYDIFLUMETOFEN]
- Pest severity (%) (Fusarium oxysporum [1]; melon Brisa, CHECK 82.41): 16.67, B %
- % efficacy based on pest severity (Fusarium oxysporum [1]; melon): 79.77%
- Pest incidence (%) (Fusarium oxysporum [2]; tomato Irati, CHECK 78.33): 15.00, B %
- % efficacy based on pest incidence (Fusarium oxysporum [2]; tomato): 80.85%

SMILES: O=C(NCCc1ncc(C(F)(F)F)cc1Cl)c1ccccc1C(F)(F)F [COMPOUND 2 SC 500, Fluopyram]
- Pest severity (%) (Alternaria solani; potato Red Norland, CHECK 97.25): 19.75, C %
- Emax at 250 g/ha (Alternaria solani; Alternaria solani, 2136 h, potato, read-out: % efficacy based on pest severity): 79.7%
- Pest incidence (%) (Fusarium oxysporum [3]; okra Samrat, CHECK 84.20): 20.50, C %
- Emax at 375 g/ha (Fusarium oxysporum [3]; Fusarium oxysporum, in Abelmoschus esculentus, soil, 1440 h, okra, read-out: % efficacy based on pest incidence): 75.7%
